Experimental data as given in the NIST ThermoML archive (doi:10.1016/j.fluid.2013.10.060).
Numbers after ± are expanded uncertainties.

Legend:
[1] = Boiling temperature at pressure P; details: 101.33 kPa; Liquid; Ebulliometric method (Recirculating still)
[2] = refractive index (Na D-line) (dimensionless); details: 298.15 K; 101.33 kPa; Liquid; Standard Abbe refractometry
[3] = for mass density: 298.15 K, 101.33 kPa, Liquid, Vibrating tube method; for surface tension liquid-gas: 303.15 K, Maximal bubble pressure

Row | Boiling temperature at pressure P [1] [°C] | refractive index [2] | mass density [3] [kg/m3] | surface tension liquid-gas [3] [mN/m] | SMILES
1 | 78.30 ± 0.02 | 1.36068 ± 0.00031 | 785.09 ± 0.15 | 21.7 ± 0.18 | CCO [ethanol]
2 | 88.21 ± 0.02 | 1.42 ± 0.00031 | 879.03 ± 0.13 | 27.1 ± 0.2 | C1CCOCC1 [tetrahydropyran]

Row | SMILES | Boiling temperature at pressure P [1] [°C] | refractive index [2] | mass density [3] [kg/m3] | surface tension liquid-gas [3] [mN/m]
3 | CCCCCC [hexane] |  | 1.37374 ± 0.00031 | 655.19 ± 0.18 | 17.4 ± 0.16
